# In patent US20100099759A1, “AGRICULTURAL APPLICATIONS OF SILVER […]” (priority 2008, published 2010):
# Read-outs that look alike come from different tables or passages of the source.
# System: Phakopsora pachyrhizi spores
# Method: The leaves were examined with a stereoscope in order to identify those with a high degree of sporulation. Leaves were cut in standard size pieces.
# Three different concentrations of SDC in distilled water were prepared having 5 ppm, 10 ppm and 15 ppm of silver, respectively. Ten ml of each solution was placed in separate test tubes. Ten selected pieces of soybean leaves were place in each test tube and stirred to suspend the spores present in the rust spots. The same procedure was used for a control, omitting the SDC in the solution. The leaves were left in the solution for two hours. For each of the product dilutions, ten Petri dishes containing water-agar substrate were inoculated with 100 spores each and maintained for 6 hours in the dark. Lactophenol dye was used to stain the mycelium growth, which was evaluated visually be microscope.
# A second experiment was performed using the protocol above, with the following additions. Duplicate solutions were made using Well Water from Parana State, Southern Brazil (WW) and Product Water from Reverse Osmosis (PW). The surfactant sodium lauryl sulphate was added to each solution to a concentration of 0.01% w/w. Again, duplicate Petri dishes were inoculated with 100 spores for each concentration of SDC in the two water types and for […] the control.
smiles,measurement,setting,value
"O=C(O)CC(O)(CC(=O)O)C(=O)[O-].[Ag+] [SDC, silver dihydrogen citrate]",germination of spores from soybean leaves (summary in words),"5, 10 and 15 ppm silver in distilled water, well water and product water from reverse osmosis, with or without surfactant",almost totally inhibited
same,% Germination,"first experiment, 5 ppm silver in distilled water, 2 h in solution, 6 h in the dark, control 16",5.0%
same,% Germination,"first experiment, 10 ppm silver in distilled water, 2 h in solution, 6 h in the dark, control 16",4.0%
same,% Germination,"first experiment, 15 ppm silver in distilled water, 2 h in solution, 6 h in the dark, control 16",5.0%
same,% Germination,"second experiment, 5 ppm, Product Water from Reverse Osmosis (PW), 0.01% w/w sodium lauryl sulphate, control 40",1.6%
same,% Germination,"second experiment, 5 ppm, Well Water (WW), 0.01% w/w sodium lauryl sulphate, control 40",1.1%
same,% Germination,"second experiment, 10 ppm, Product Water from Reverse Osmosis (PW), 0.01% w/w sodium lauryl sulphate, control 40",0.4%
same,% Germination,"second experiment, 10 ppm, Well Water (WW), 0.01% w/w sodium lauryl sulphate, control 40",0.5%
same,% Germination,"second experiment, 15 ppm, Product Water from Reverse Osmosis (PW), 0.01% w/w sodium lauryl sulphate, control 40",0.5%
same,% Germination,"second experiment, 15 ppm, Well Water (WW), 0.01% w/w sodium lauryl sulphate, control 40",0.2%
